Results reported in PubChem BioAssay AID651630 (Sanford-Burnham Center for Chemical Genomics, 2012).
pIC50: −log10 of the molar value. Calls of active or inactive are those of the source.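 The calls were made as follows: active = lipid-stain IC50 at or below a set limit, with nuclear-stain toxicity IC50 at least five times higher; inactive = the rest.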

Assays:
DAPI = test: triacylglycerol accumulation inhibitor potency, dose response, cell-based, panel, Nile Red and DAPI fluorescence, H9c2 (AID 651630); conditions: H9c2 cells, DAPI nuclear fluorescence (cytotoxicity counter-readout), oleic acid;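 also: cells exposed to compound overnight before fixation and staining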
TAG = test: as above; conditions: H9c2 cells, Nile Red TAG fluorescence, oleic acid

| IC50 (TAG; mean of runs) | pIC50 (TAG; run 1) | pIC50 (TAG; run 2) | pIC50 (TAG; mean of runs) | SMILES | IC50 cytotoxicity (DAPI nuclear signal decrease) (DAPI; mean of runs) | IC50 cytotoxicity (DAPI nuclear signal decrease) (DAPI; run 1) | IC50 cytotoxicity (DAPI nuclear signal decrease) (DAPI; run 2) |
| --- | --- | --- | --- | --- | --- | --- | --- |
| > 25 µM (inactive) | < 4.60 | < 4.60 |  | Cc1cc(N/N=C\c2ccc(Br)cc2)nc(-n2nc(C)cc2C)n1 | > 25 µM (inactive) | > 25 µM | > 25 µM |
|  | 4.77 | < 4.60 |  | CC1(C(=O)NCc2ccco2)Cc2c(-c3ccc4c(c3)OCO4)ccnc2O1 (stereo not drawn) | > 25 µM (inactive) | > 25 µM | > 25 µM |
|  | 5.08 | 5.08 | 5.08 | O=[N+]([O-])c1cccc(S(=O)(=O)N2CN(c3ccc(Br)cc3)c3nc4ccccc4nc32)c1 | > 25 µM (inactive) | > 25 µM | > 25 µM |
|  | 4.98 | 4.90 | 4.94 | CC(=O)c1ccc(Oc2cc(C)nc(-n3nc(C)cc3C)n2)cc1 | > 25 µM (inactive) | > 25 µM | > 25 µM |
|  | 5.04 | 5.17 | 5.10 | CO/N=C\CC(=O)Nc1ccc(Oc2ccccc2)cc1 | > 25 µM (inactive) | > 25 µM | > 25 µM |
| > 25 µM (inactive) | < 4.60 | < 4.60 |  | Fc1ccc(Oc2nc(-c3ccccn3)nc3ccccc23)cc1 | > 25 µM (inactive) | > 25 µM | > 25 µM |
| 20.4 µM (inactive) | 4.73 | 4.65 |  | O=C1N[C@@H](Cc2ccccc2)COC(=O)[C@@H](Cc2ccc(F)cc2)CC/C=C/C[C@@H]1CC(=O)N(CCO)Cc1ccccc1 | > 25 µM (inactive) | > 25 µM | > 25 µM |
| 15.8 µM (inactive) | 4.84 | 4.77 |  | COc1cc(-c2cnc3c(NC=O)cc(-c4cccnc4)cn23)cc(OC)c1OC | > 25 µM (inactive) | > 25 µM | > 25 µM |
|  | 5.14 | 5.18 | 5.16 | C=CC[C@@H](CC(=O)N(CCO)Cc1ccccc1)C(=O)N[C@H](COC(=O)[C@@H](CC=C)Cc1ccc(F)cc1)Cc1ccccc1 | > 25 µM (inactive) | > 25 µM | > 25 µM |
|  | 5.46 | 4.86 | 5.06 | CN(C)C(=O)c1cccc(-c2cnc3c(NC=O)cc(-c4ccc(C(=O)N5CCOCC5)cc4)cn23)c1 | > 25 µM (inactive) | > 25 µM | > 25 µM |
| > 25 µM (inactive) | < 4.60 | < 4.60 |  | O=C(CCC1CCCCC1)NCCN1C2=NC[C@@H](Cc3ccccc3)N2C[C@H]1Cc1ccc(O)cc1 | > 25 µM (inactive) | > 25 µM | > 25 µM |
|  | 4.82 | < 4.60 |  | O=C(Nc1ccc(-c2csc(Nc3ccccc3)n2)cc1)c1cccc(C(F)(F)F)c1 | > 25 µM (inactive) | > 25 µM | > 25 µM |
|  | 5.45 | 5.30 | 5.37 | C=CC[C@@H](CC(=O)N(CCO)Cc1ccccc1)C(=O)N[C@H](COC(=O)[C@@H](CC=C)Cc1ccc(F)cc1)C(C)(C)C |  | > 25 µM | > 25 µM |
|  | 5.13 | 5.40 | 5.24 | Cc1ccc(NC(=O)Cn2nnc(-c3ccccc3NC(=O)c3cccs3)n2)cc1 | > 25 µM (inactive) | > 25 µM | > 25 µM |

Continued, compound first:

| SMILES | IC50 (TAG; mean of runs) | pIC50 (TAG; run 1) | pIC50 (TAG; run 2) | pIC50 (TAG; mean of runs) | IC50 cytotoxicity (DAPI nuclear signal decrease) (DAPI; mean of runs) | IC50 cytotoxicity (DAPI nuclear signal decrease) (DAPI; run 1) | IC50 cytotoxicity (DAPI nuclear signal decrease) (DAPI; run 2) |
| --- | --- | --- | --- | --- | --- | --- | --- |
| O=C(C[C@H]1C[C@H](C(=O)N2CCOCC2)[C@@]2(CCC3CCCC3)c3[nH]c4cc(-c5ccco5)ccc4c3CCN2C1=O)NCC12CC3CC(CC(C3)C1)C2 |  | 5.39 | 5.48 | 5.43 |  | > 25 µM | > 25 µM |
| CCN(CC)S(=O)(=O)c1ccc(N2CCOCC2)c(NC(=O)c2[nH]c(C)c(C(C)=O)c2C)c1 |  | 5.22 | 5.10 | 5.15 | > 25 µM (inactive) | > 25 µM | > 25 µM |
| OCCCn1c(C2CCCN2c2nc(-c3ccc(F)cc3)cs2)nc2cc(C(F)(F)F)ccc21 (stereo not drawn) |  | 4.85 | 4.86 | 4.85 | > 25 µM (inactive) | > 25 µM | > 25 µM |
| OCCCn1c(C2CCCN2c2nc(-c3ccc(Cl)cc3)cs2)nc2cc(Cl)c(N3CCCCC3)cc21 (stereo not drawn) |  | 4.61 | < 4.60 |  | > 25 µM (inactive) | > 25 µM | > 25 µM |
| Cc1cc(N/N=C/c2cccc(Cl)c2)nc(-n2nc(C)cc2C)n1 | > 25 µM (inactive) | < 4.60 | < 4.60 |  | > 25 µM (inactive) | > 25 µM | > 25 µM |
| Brc1ccc(C2=Nn3c(nnc3-c3n[nH]c4c3CCC4)SC2)cc1 |  | 5.02 | 4.74 | 4.86 | > 25 µM (inactive) | > 25 µM | > 25 µM |
| CSC1=NC(C(Cl)(Cl)Cl)N=C(c2ccc(C)cc2)N1 (stereo not drawn) | > 25 µM (inactive) | < 4.60 | < 4.60 |  | > 25 µM (inactive) | > 25 µM | > 25 µM |
| COc1cc(C#Cc2c(-c3cncn3C)n(C)c3ccc(-c4ccc(OC)c(OC)c4)cc23)cc(OC)c1 |  | 5.07 | 5.04 | 5.06 | > 25 µM (inactive) | > 25 µM | > 25 µM |
| CCCC1O[C@@H]2C[C@H]3[C@@H]4CCC5=CC(=O)C=C[C@]5(C)[C@H]4[C@@H](O)C[C@]3(C)[C@]2(C(=O)CO)O1 (stereo partly drawn) |  | 5.45 | 5.46 | 5.46 |  | > 25 µM | > 25 µM |
| O=C(CCl)Nc1cc2[nH]c(=O)[nH]c2cc1Br |  | 5.22 | 4.89 | 5.03 | 15 µM (inactive) | 11.7 µM | 18.3 µM |
